Results taken from article PMC3914206.

Experiments:
Format in all cases: binding
Conditions in all cases: Compound Concentration 10 µM
panel of 442 kinases [1] = target: T1, panel of 442 kinases (Homo sapiens, UniProt P42345)
T1 construct: purchased KINOMEscan
Description: (§1) We assessed the selectivity of members of this scaffold using the KINOMEscan methodology across a near comprehensive panel of 442 kinases [[18,27]].

panel of 442 kinases [2] = target: T2, panel of 442 kinases (Homo sapiens, UniProt P08922)
T2 construct: purchased KINOMEscan
T2 sequence (P08922 28-2347): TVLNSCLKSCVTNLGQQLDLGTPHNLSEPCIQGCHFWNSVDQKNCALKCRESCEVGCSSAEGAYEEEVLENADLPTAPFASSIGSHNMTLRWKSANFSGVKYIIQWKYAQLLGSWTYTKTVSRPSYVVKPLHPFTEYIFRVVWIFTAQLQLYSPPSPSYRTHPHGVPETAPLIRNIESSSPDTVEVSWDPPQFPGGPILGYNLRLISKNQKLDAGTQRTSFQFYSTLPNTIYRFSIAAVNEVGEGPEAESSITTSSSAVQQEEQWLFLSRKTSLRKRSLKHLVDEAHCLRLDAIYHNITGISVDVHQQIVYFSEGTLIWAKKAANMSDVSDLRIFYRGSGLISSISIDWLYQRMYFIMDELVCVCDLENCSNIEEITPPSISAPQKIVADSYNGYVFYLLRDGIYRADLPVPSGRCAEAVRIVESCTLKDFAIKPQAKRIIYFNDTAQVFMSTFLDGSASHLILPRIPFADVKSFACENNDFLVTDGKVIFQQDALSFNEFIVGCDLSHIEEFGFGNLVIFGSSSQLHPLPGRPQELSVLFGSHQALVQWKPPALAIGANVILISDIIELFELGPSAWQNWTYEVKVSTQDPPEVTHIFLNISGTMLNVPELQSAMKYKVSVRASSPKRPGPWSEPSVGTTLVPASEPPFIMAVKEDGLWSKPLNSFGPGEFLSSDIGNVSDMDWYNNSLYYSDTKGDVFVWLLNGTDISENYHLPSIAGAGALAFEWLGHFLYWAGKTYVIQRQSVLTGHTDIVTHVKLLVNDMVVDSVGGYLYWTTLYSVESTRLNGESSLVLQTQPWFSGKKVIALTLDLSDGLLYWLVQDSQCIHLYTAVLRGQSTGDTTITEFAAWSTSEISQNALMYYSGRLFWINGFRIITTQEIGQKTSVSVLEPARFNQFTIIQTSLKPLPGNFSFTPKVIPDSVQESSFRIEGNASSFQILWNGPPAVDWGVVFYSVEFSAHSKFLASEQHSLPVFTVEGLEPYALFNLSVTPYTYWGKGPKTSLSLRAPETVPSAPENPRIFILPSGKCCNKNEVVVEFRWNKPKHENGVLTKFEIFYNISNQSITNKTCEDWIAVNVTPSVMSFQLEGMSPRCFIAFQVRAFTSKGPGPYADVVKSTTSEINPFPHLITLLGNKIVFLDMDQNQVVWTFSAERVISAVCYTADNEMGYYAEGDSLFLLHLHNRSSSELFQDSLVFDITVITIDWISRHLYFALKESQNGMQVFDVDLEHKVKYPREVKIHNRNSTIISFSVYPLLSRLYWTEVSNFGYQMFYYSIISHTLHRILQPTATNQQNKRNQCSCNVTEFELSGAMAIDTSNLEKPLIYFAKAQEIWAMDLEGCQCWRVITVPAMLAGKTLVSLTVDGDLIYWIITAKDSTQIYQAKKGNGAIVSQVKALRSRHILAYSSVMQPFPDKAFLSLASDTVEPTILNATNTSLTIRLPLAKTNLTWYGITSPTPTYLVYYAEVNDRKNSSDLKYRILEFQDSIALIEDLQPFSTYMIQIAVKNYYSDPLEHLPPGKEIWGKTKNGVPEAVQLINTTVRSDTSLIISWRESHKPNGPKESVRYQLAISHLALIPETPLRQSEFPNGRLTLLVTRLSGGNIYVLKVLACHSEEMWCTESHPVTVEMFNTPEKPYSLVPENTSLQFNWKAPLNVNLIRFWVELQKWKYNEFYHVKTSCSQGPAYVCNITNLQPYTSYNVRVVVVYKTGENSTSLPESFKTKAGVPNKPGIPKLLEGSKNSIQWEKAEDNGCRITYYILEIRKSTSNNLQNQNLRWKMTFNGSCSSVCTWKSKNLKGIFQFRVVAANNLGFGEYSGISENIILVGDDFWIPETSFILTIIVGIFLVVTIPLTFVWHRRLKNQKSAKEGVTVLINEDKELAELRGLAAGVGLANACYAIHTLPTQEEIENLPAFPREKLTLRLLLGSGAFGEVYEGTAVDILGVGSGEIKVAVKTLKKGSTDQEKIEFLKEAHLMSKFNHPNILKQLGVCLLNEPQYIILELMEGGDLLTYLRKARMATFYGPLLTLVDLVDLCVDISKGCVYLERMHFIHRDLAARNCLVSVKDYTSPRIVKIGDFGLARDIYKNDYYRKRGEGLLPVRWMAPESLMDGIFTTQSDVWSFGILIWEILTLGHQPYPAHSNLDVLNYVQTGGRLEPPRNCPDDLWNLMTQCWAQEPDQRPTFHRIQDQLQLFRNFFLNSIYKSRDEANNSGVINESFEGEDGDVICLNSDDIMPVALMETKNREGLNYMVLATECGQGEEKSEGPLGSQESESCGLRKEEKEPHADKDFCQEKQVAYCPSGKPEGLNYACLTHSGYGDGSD
Description: as §1

panel of 442 kinases [3] = target: T3, panel of 442 kinases (Homo sapiens, UniProt P51817)
T3 construct: purchased KINOMEscan
T3 sequence (P51817 1-358): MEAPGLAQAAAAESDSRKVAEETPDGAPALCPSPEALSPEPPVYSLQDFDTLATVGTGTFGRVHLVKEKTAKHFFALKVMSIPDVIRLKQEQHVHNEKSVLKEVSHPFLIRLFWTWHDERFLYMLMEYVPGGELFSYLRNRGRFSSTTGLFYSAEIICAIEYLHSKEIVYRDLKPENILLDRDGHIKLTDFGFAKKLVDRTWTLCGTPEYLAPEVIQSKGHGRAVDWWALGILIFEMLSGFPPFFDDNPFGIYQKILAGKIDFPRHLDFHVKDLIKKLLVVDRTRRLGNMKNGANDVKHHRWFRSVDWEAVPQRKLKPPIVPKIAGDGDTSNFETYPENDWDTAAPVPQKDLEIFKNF
Description: as §1

SMILES	KINOMEscan: MTOR (panel of 442 kinases [1])	KINOMEscan: ROS1 (panel of 442 kinases [2])	KINOMEscan: PRKX (panel of 442 kinases [3])
COc1cc(C(=O)N2CCC(N3CCN(C)CC3)CC2)ccc1Nc1ncc2c(n1)N(C)c1ccccc1C(=O)N2C [15 (LRRK2-IN-1)]	97	12	99
COc1cc(C(=O)N2CCC(N3CCN(C)CC3)CC2)ccc1Nc1ncc2c(n1)N1CCc3cccc(c31)C(=O)N2C [Compound 24]	–	24	87
COc1cc(C(=O)N2CCC(N3CCN(C)CC3)CC2)ccc1Nc1ncc2c(n1)N(C1CCCC1)c1ccccc1C(=O)N2C [Compound 25, 11-cyclopentyl-2-((2-methoxy-4-(4-(4-methylpiperazin-1-yl)piperidine-1-carbonyl)phenyl)amino)-5-methyl-5H-benzo[e]pyrimido[5,4-b][1,4]diazepin-6(11H)-one]	100	3.4	100
CCOc1cc(C(=O)N2CCC(N3CCN(C)CC3)CC2)ccc1Nc1ncc2c(n1)N(C1CCCC1)c1ccccc1C(=O)N2C [Compound 26]	100	20	100
